From patent publication US5817690A, “4-aminoethoxy indolone derivatives” (American Home Products Corporation, priority 1997, dated 1998) come the findings set out here.

The test addresses T1, dopamine D-2 receptor (D2 Spiper) (Rattus norvegicus, UniProt P61169).
T1 construct: homogenized limbic brain tissue is incubated with; from tissue; host or cells: limbic brain tissue homogenate
Briefly: 3H-spiroperidol (Spiper.) binding in homogenized limbic brain tissue, affinity for the dopamine D-2 receptor.

T1 sequence (P61169 whole entry): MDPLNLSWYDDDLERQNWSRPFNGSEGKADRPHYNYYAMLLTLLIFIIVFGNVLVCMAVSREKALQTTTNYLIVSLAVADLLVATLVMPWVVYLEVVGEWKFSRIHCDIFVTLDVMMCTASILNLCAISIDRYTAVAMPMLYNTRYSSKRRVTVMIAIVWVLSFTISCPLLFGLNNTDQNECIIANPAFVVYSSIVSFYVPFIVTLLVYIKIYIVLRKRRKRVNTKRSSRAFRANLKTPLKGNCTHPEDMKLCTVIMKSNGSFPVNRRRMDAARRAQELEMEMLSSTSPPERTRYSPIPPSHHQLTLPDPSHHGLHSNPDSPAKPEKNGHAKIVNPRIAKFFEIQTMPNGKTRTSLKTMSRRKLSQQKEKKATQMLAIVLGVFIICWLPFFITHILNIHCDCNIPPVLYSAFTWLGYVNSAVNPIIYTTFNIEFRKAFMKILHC
Protocol: High affinity for the dopamine D-2 receptor was established by the standard experimental test procedure of Fields, et al., Brain Res., 136, 578 (1977) and Yamamura et al., eds., Neurotransmitter Receptor Binding, Raven Press, New York (1978) wherein homogenized limbic brain tissue is incubated with ^3 H-spiroperidol (Spiper.) and various concentrations of test compound, filtered and washed and shaken with Hydrofluor scintillation cocktail (National Diagnostics) and counted in a Packard 460 CD scintillation counter.

Broadly, the IC50 is the concentration that gives 50% inhibition. Low values mean greater potency, high ones weaker potency. In the case of `O=C1Cc2c(cccc2OCCNCCCCc2ccccc2)N1` [Example 13], the half-maximal inhibitory concentration (IC50) was found to be 25 nM. Consider `O=C1Cc2c(OCCNCc3ccc(F)cc3)ccc(Cl)c2N1` [Example 4], for which the IC50 amounted to 176 nM. As for `CNCCOc1cccc2c1CC(=O)N2` [Example 2, 4-(2-Methylamino-ethoxy)-1,3-dihydro-indol-2-one], the figure is 918 nM; as for `NCCOc1cccc2c1CC(=O)N2` [Example 3, 4-(2-Amino-ethoxy)-1,3-dihydro-indol-2-one], 3420 nM; as for `CN(CCOc1cccc2c1CC(=O)N2)Cc1ccccc1` [Example 25, 4-[2-(Benzyl-methyl-amino)-ethoxy]-1,3-dihydro-indol-2-one], 645 nM.

`CN(CCOc1ccc(Cl)c2c1CC(=O)N2)Cc1ccccc1` [Example 7, 4-[2-(N-Benzyl-N-methyl-amino)-ethoxy]-7-chloro-1,3dihydro-indol-2-one] displayed a half-inhibitory concentration (IC50) of 231 nM.

In the case of `O=C1Cc2c(OCCN3CCc4ccccc4C3)ccc(Cl)c2N1` [Example 9, 7-Chloro-4-[2-(3,4-dihydro-1H-isoguinolin-2-yl)-ethoxy]-1,3-dihydro-indol-2-one], the IC50 was 81.4 nM. In turn, `Cc1ccc(CNCCOc2ccc(Cl)c3c2CC(=O)N3)cc1` [Example 6] returned an IC50 of 37.5 nM. For `O=C1Cc2c(OCCNCc3ccccc3)ccc(Cl)c2N1` [Example 14, 4-(2-Benzylamino-ethoxy)-7-chloro-1,3-dihydro-indol-2-one], the concentration for half-maximal inhibition (IC50) came out at 36 nM. `O=C1Cc2c(OCCNCc3ccc(Cl)cc3)ccc(Cl)c2N1` [Example 5] gave a concentration for half-maximal inhibition (IC50) of 51.9 nM.

`O=C1Cc2c(OCCNCc3ccccc3)ccc(F)c2N1` [Example 15, 4-(2-Benzylamino-ethoxy)-7-fluoro-1,3-dihydro-indol-2-one] registered an IC50 of 68.7 nM.

As for `O=C1Cc2c(OCCNCC3CCCCC3)ccc(F)c2N1` [Example 16, 4-[2-(Cyclohexylmethyl-amino)-ethoxy)-7-fluoro-1,3-dihydro-indol-2one], the IC50 is 99.4 nM. Compound `CCCCNCCOc1ccc(Cl)c2c1CC(=O)N2` [Example 8, 4-(2-Butylamino-ethoxy)-7-chloro-1,3-dihydro-indol-2-one] came in with an IC50 of 144 nM. `CN(CCCC(=O)c1ccc(F)cc1)CCOc1cccc2c1CC(=O)N2` [Example 27, 4-(2-{[4-(4-Fluoro-phenyl)-4-oxo-butyl]-methyl-amino}-ethoxy)-1,3-dihydro-indol-2-one] had an IC50 of 346 nM.

Take `O=C1Cc2c(cccc2OCCNCc2ccccc2)N1` [Example 1, 4-(2-Benzylaminoethoxy)-1,3-dihydro-indol-2-one]: the IC50 amounted to 145 nM.
